Assay results as given in EP4759807A1, “PROTEOLYSIS TARGETING CHIMERA COMPOUND FOR DEGRADING IRAK4 AND USE THEREOF” (Shenzhen Zhongge Biological Technology Co., Ltd., priority 2023, dated 2025).
Where two headings read alike, the source gives them in different places.

Target: T1, IRAK4 (Homo sapiens, UniProt Q9NWZ3)
T1 sequence (Q9NWZ3 1-460): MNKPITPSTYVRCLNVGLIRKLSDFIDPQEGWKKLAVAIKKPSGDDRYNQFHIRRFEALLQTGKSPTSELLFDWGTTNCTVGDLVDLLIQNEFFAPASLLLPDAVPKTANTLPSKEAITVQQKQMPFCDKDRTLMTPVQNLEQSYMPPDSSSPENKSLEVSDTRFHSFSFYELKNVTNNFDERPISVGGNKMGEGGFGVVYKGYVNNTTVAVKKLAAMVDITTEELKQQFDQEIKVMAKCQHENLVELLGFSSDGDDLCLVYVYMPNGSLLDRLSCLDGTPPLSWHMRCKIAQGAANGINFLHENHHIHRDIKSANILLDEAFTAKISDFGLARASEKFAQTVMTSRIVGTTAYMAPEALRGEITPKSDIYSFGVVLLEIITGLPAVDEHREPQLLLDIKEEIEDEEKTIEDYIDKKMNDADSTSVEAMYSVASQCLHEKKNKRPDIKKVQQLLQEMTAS
Test: Hibit fluorescence detection of proteolysis (IRAK4-HiBiT in HEK293T cells)
Assay type: cell-based
Design: host or cells: HEK293T (ATCC)
Settings: for Dmax: HEK-293T; for DC50: IRAK4-HiBiT, HEK293T cells, 24 h
Procedure: Utilizing HiBiT tag technology, the HiBiT tag-containing sequence (Seq. ID. No. 1, Beijing Tsingke Biotech Co., Ltd.) was connected to the IRAK4 plasmid (Seq. ID. No. 2, Beijing Tsingke Biotech Co., Ltd.), and the plasmid was transfected into HEK293T cells (ATCC). […] The 6-well plate that was incubated overnight was taken out. After the plate was left at room temperature for 15 min, the obtained mixture was added dropwise to the 6-well plate. […] Culture was performed at 37°C and 5% CO2 for 24 h. The 384-well plate was taken out and equilibrated to room temperature. 40 µL of Nano-Glo® HiBiT Lytic Detection System (Promega N3030) was added to each well and incubated at room temperature for 15 min. […] Prism 9.3 software was used to perform fitting analysis for data, and non-linear fitting (non-liner inhibitor (Bell-shaped)) and four parameters (4 parameter) were used, and the parameters was as follows: Span1 = Plateau1−Dip [formula] Span2 = Plateau2−Dip [formula] Section1 = Span1/(1+10^(∧)((LogEC50_1−X)*nH1)) [formula] Section2 = Span2/(1+10^(∧)((X−LogEC50_2)*nH2)) [formula]
The equation was as follows: Y=Dip+Section1+Section2. • Seq. ID. No. 1 ([…]), other DNA, synthetic construct, sequence length 33; • Seq. ID. No. 2 [formula]

Row | SMILES | Dmax | DC50 | DC50 (read-out: DC50)
1 | Cn1c(=O)n(C2CCC(=O)NC2=O)c2cccc(NCCC3CC4(C3)CN(C[C@H]3CC[C@H](n5cc(-n6cc(-c7cnn8ccc(N9CCOCC9)nc78)nn6)c(C(F)F)n5)CC3)C4)c21 (stereo partly drawn) [Example 26, 3-(4-((2-(2-(((1r,4r)-4-(3-(difluoromethyl)-4-(4-(5-morpholinopyrazolo[1,5-a]pyrimidin-3-yl)-1H-1,2,3-triazol-1-yl)-1H-pyrazol-1-yl)cyclohexyl)methyl)-2-azaspiro[3.3]heptan-6-yl)ehtyl)amino)-3-methyl-2-oxo-2,3-dihydro-1H-benzo[d]imidazol-1-yl)piperidine-2,6-dione] | 70 to 80% | < 0.5 nM | 
2 | Cn1c(=O)n(C2CCC(=O)NC2=O)c2cccc(CNC3CC4(CCN(C[C@H]5CC[C@H](n6cc(-n7cc(-c8cnn9ccc(N%10CCOCC%10)nc89)nn7)c(C(F)F)n6)CC5)CC4)C3)c21 (stereo partly drawn) [Example 10] | > 80% | < 0.5 nM | 
3 | Cn1c(=O)n(C2CCC(=O)NC2=O)c2cccc(N[C@H]3CC[C@H](N(C)C[C@H]4CC[C@H](n5cc(-n6cc(-c7cnn8ccc(N9CCC(C)(O)CC9)nc78)nn6)c(C(F)F)n5)CC4)CC3)c21 (stereo partly drawn) [Compound 237] | 70 to 80% |  | < 0.5 nM
4 | Cn1c(=O)n(C2CCC(=O)NC2=O)c2cccc(N3CCC(N4CCN(C[C@H]5CC[C@H](n6cc(-n7cc(-c8ccc9cc(C(N)=O)cnn89)nn7)c(C(F)F)n6)CC5)CC4)CC3)c21 (stereo partly drawn) [Example 91, 7-(1-(3-(difluoromethyl)-1-((1r,4r)-4-((4-(1-(1-(2,6-dioxopiperidin-3-yl)-3-methyl-2-oxo-2,3-dihydro-1H-benzo[d]imidazol-4-yl)piperidin-4-yl)piperazin-1-yl)methyl)cyclohexyl)-1H-pyrazol-4-yl)-1H-1,2,3-triazol-4-yl)pyrrolo[1,2-b]pyridazine-3-carboxamide] | > 80% | < 0.5 nM | 
5 | CN1CCN(c2ccn3ncc(-c4cn(-c5cn([C@H]6CC[C@H](CN7CCN(C8CCN(c9cccc%10c9n(C)c(=O)n%10C9CCC(=O)NC9=O)CC8)CC7)CC6)nc5C(F)F)nn4)c3n2)CC1 (stereo partly drawn) [Compound 231] | 70 to 80% |  | 0.5 to 1 nM
6 | Cn1c(=O)n(C2CCC(=O)NC2=O)c2cccc(N3CCN(C4CCN(C[C@H]5CC[C@H](n6cc(-n7cc(-n8ccc9cc(C(N)=O)cnc98)nn7)c(C(F)F)n6)CC5)CC4)CC3)c21 (stereo partly drawn) [Example 104, 1-(1-(3-(difluoromethyl)-1-((1r,4r)-4-((4-(4-(1-(2,6-dioxopiperidin-3-yl)-3-methyl-2-oxo-2,3-dihydro-1H-benzo[d]imidazol-4-yl)piperazin-1-yl)piperidin-1-yl)methyl)cyclohexyl)-1H-pyrazol-4-yl)-1H-1,2,3-triazol-4-yl)-1H-pyrrolo[2,3-b]pyridine-5-carboxamide] | > 80% | < 0.5 nM | 
7 | NC(=O)c1cnn2c(-c3cn(-c4cn([C@H]5CC[C@H](CN6CCN(c7ccc8c(c7)CN(C7CCC(=O)NC7=O)C8=O)CC6)CC5)nc4C(F)F)nn3)ccc2c1 (stereo partly drawn) [Example 72, 7-(1-(3-(difluoromethyl)-1-((1r,4r)-4-((4-(2-(2,6-dioxopiperidin-3-yl)-1-oxoisoindolin-5-yl)piperazin-1-yl)methyl)cyclohexyl)-1H-pyrazol-4-yl)-1H-1,2,3-triazol-4yl)pyrrolo[1,2-b]pyridazine-3-carboxamide] | 60 to 70% | < 0.5 nM | 
8 | Cn1c(=O)n(C2CCC(=O)NC2=O)c2cccc(N3CCN(C[C@H]4CC[C@H](n5cc(-n6cc(-n7ccc8cc(C(N)=O)cnc87)nn6)c(C(F)F)n5)CC4)CC3)c21 (stereo partly drawn) [Example 100, 1-(1-(3-(difluoromethyl)-1-((1r,4r)-4-((4-(1-(2,6-dioxopiperidin-3-yl)-3-methyl-2-oxo-2,3-dihydro-1H-benzo[d]imidazol-4-yl)piperazin-1-yl)methyl)cyclohexyl)-1H-pyrazol-4-yl)-1H-1,2,3-triazol-4-yl)-1H-pyrrolo[2,3-b]pyridine-5-carboxamide] | 60 to 70% | 0.5 to 1 nM | 
9 | CN(C[C@H]1CC[C@H](n2cc(-n3cc(-c4cnn5ccc(N6CCOCC6)nc45)nn3)c(C(F)F)n2)CC1)C1CCN(Cc2cccc3c2n(C)c(=O)n3C2CCC(=O)NC2=O)CC1 (stereo partly drawn) [Example 15] | < 60% | 1 to 5 nM | 
